One block for each compound: values may come before it.
System: 996289-038-R-J1-PDC complex spheroid viability
Assay: Anticancer human tumor 996289-038-R-J1-PDC patient-derived colon adenocarcinoma cell line growth inhibition [CLK]
Conditions: for IC50: curve of first compound; for viability, T/C: stronger effect = lower value
Method in brief: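 Patient-derived tumor cells grown as complex spheroids with HUVEC endothelial cells and mesenchymal stem cells, treated with drug combinations. Concentrations descend in half-log steps from near clinical Cmax, or from 10 microM if Cmax unknown.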

[1] = second compound 0.0316 µM, first compound 0.0316 µM
[2] = second compound 0.0316 µM, first compound 0.1 µM
[3] = second compound 0.0316 µM, first compound 0.316 µM
[4] = second compound 0.0316 µM, first compound 1 µM
[5] = second compound 0.1 µM, first compound 0.0316 µM
[6] = second compound 0.1 µM, first compound 0.1 µM
[7] = second compound 0.1 µM, first compound 0.316 µM
[8] = second compound 0.1 µM, first compound 1 µM
[9] = second compound 0.316 µM, first compound 0.0316 µM
[10] = second compound 0.316 µM, first compound 0.1 µM
[11] = second compound 0.316 µM, first compound 0.316 µM
[12] = second compound 0.316 µM, first compound 1 µM
[13] = second compound 1 µM, first compound 0.0316 µM
[14] = second compound 1 µM, first compound 0.1 µM
[15] = second compound 1 µM, first compound 0.316 µM
[16] = second compound 1 µM, first compound 1 µM
[17] = second compound 3.16 µM, first compound 0.0316 µM
[18] = second compound 3.16 µM, first compound 0.1 µM
[19] = second compound 3.16 µM, first compound 0.316 µM
[20] = second compound 3.16 µM, first compound 1 µM
[21] = second compound 10 µM, first compound 0.0316 µM
[22] = second compound 10 µM, first compound 0.1 µM
[23] = second compound 10 µM, first compound 0.316 µM
[24] = second compound 10 µM, first compound 1 µM
[25] = second compound 0.0316 µM, first compound 0.00316 µM
[26] = second compound 0.0316 µM, first compound 0.01 µM
[27] = second compound 0.1 µM, first compound 0.00316 µM
[28] = second compound 0.1 µM, first compound 0.01 µM
[29] = second compound 0.316 µM, first compound 0.00316 µM
[30] = second compound 0.316 µM, first compound 0.01 µM
[31] = second compound 1 µM, first compound 0.00316 µM
[32] = second compound 1 µM, first compound 0.01 µM
[33] = second compound 3.16 µM, first compound 0.00316 µM
[34] = second compound 3.16 µM, first compound 0.01 µM
[35] = second compound 10 µM, first compound 0.00316 µM
[36] = second compound 10 µM, first compound 0.01 µM
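Further: spheroids exposed to the agents for 7 days before readout.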

- IC50 (second compound 0.0316 µM): > 10000 nM
- IC50 (second compound 0.1 µM): 8750 nM
- IC50 (second compound 0.316 µM): 655 nM
- IC50 (second compound 1 µM): 45.3 nM
- IC50 (second compound 3.16 µM): 48.9 nM
- IC50 (second compound 10 µM): < 31.6 nM
SMILES: CC(Nc1ccc2c(c1)OCCn1cc(N3C(=O)OCC3C(F)F)nc1-2)C(N)=O (stereo unspecified) + CNC(=O)c1ccc(Nc2nc(OC3CCCC3)c3c(-c4ccc5nc(C)oc5c4)c[nH]c3n2)c(OC)c1
- viability, T/C [1]: 113%
- viability, T/C [2]: 92.9%
- viability, T/C [3]: 83.4%
- viability, T/C [4]: 69.1%
- viability, T/C (second compound 0.0316 µM, first compound 3.16 µM): 60.2%
- viability, T/C (second compound 0.0316 µM, first compound 10 µM): 49.7%
- viability, T/C [5]: 114%
- viability, T/C [6]: 97.3%
- viability, T/C [7]: 82.1%
- viability, T/C [8]: 70.9%
- viability, T/C (second compound 0.1 µM, first compound 3.16 µM): 61.1%
- viability, T/C (second compound 0.1 µM, first compound 10 µM): 47.4%
- viability, T/C [9]: 69.1%
- viability, T/C [10]: 62.3%
- viability, T/C [11]: 53%
- viability, T/C [12]: 47.4%
- viability, T/C (second compound 0.316 µM, first compound 3.16 µM): 42.2%
- viability, T/C (second compound 0.316 µM, first compound 10 µM): 32.2%
- viability, T/C [13]: 52.9%
- viability, T/C [14]: 43.7%
- viability, T/C [15]: 38.3%
- viability, T/C [16]: 31.5%
- viability, T/C (second compound 1 µM, first compound 3.16 µM): 29.2%
- viability, T/C (second compound 1 µM, first compound 10 µM): 24.4%
- viability, T/C [17]: 53.7%
- viability, T/C [18]: 44.8%
- viability, T/C [19]: 33.1%
- viability, T/C [20]: 31.5%
- viability, T/C (second compound 3.16 µM, first compound 3.16 µM): 25.4%
- viability, T/C (second compound 3.16 µM, first compound 10 µM): 21.9%
- viability, T/C [21]: 46.7%
- viability, T/C [22]: 42.8%
- viability, T/C [23]: 31.2%
- viability, T/C [24]: 30.6%
- viability, T/C (second compound 10 µM, first compound 3.16 µM): 27.1%
- viability, T/C (second compound 10 µM, first compound 10 µM): 21.8%

- IC50 (second compound 0.0316 µM): > 1000 nM
- IC50 (second compound 0.1 µM): > 1000 nM
- IC50 (second compound 0.316 µM): > 1000 nM
- IC50 (second compound 1 µM): > 1000 nM
- IC50 (second compound 3.16 µM): > 1000 nM
- IC50 (second compound 10 µM): > 1000 nM
SMILES: CCN1CCN(Cc2ccc(Nc3ncc(F)c(-c4cc(F)c5nc(C)n(C(C)C)c5c4)n3)nc2)CC1 + CNC(=O)c1ccc(Nc2nc(OC3CCCC3)c3c(-c4ccc5nc(C)oc5c4)c[nH]c3n2)c(OC)c1
- viability, T/C [25]: 109%
- viability, T/C [26]: 103%
- viability, T/C [1]: 106%
- viability, T/C [2]: 97.6%
- viability, T/C [3]: 92.6%
- viability, T/C [4]: 96.2%
- viability, T/C [27]: 115%
- viability, T/C [28]: 111%
- viability, T/C [5]: 108%
- viability, T/C [6]: 91.8%
- viability, T/C [7]: 86.5%
- viability, T/C [8]: 86.7%
- viability, T/C [29]: 79%
- viability, T/C [30]: 81.2%
- viability, T/C [9]: 80.8%
- viability, T/C [10]: 75%
- viability, T/C [11]: 82.8%
- viability, T/C [12]: 76.8%
- viability, T/C [31]: 72.6%
- viability, T/C [32]: 70.2%
- viability, T/C [13]: 64.2%
- viability, T/C [14]: 66.9%
- viability, T/C [15]: 64.8%
- viability, T/C [16]: 77.1%
- viability, T/C [33]: 62.5%
- viability, T/C [34]: 62.1%
- viability, T/C [17]: 61.9%
- viability, T/C [18]: 64.9%
- viability, T/C [19]: 73.2%
- viability, T/C [20]: 65.9%
- viability, T/C [35]: 66%
- viability, T/C [36]: 63.9%
- viability, T/C [21]: 61.3%
- viability, T/C [22]: 62.2%
- viability, T/C [23]: 68.1%
- viability, T/C [24]: 59.8%

- IC50 (second compound 0.0316 µM): 123 nM
- IC50 (second compound 0.1 µM): 97.3 nM
- IC50 (second compound 0.316 µM): 28.9 nM
- IC50 (second compound 1 µM): 7.67 nM
- IC50 (second compound 3.16 µM): 3.86 nM
- IC50 (second compound 10 µM): < 3.16 nM
SMILES: COc1c(OCCCN2CCOCC2)ccc2c3n(c(=NC(=O)c4cnc(N)nc4)nc12)CCN3 + CNC(=O)c1ccc(Nc2nc(OC3CCCC3)c3c(-c4ccc5nc(C)oc5c4)c[nH]c3n2)c(OC)c1
- viability, T/C [25]: 112%
- viability, T/C [26]: 96.5%
- viability, T/C [1]: 72.6%
- viability, T/C [2]: 54.6%
- viability, T/C [3]: 35.4%
- viability, T/C [4]: 25.2%
- viability, T/C [27]: 112%
- viability, T/C [28]: 96.1%
- viability, T/C [5]: 71.8%
- viability, T/C [6]: 48.7%
- viability, T/C [7]: 33.8%
- viability, T/C [8]: 21.2%
- viability, T/C [29]: 70.2%
- viability, T/C [30]: 62.8%
- viability, T/C [9]: 47.7%
- viability, T/C [10]: 35.5%
- viability, T/C [11]: 22.9%
- viability, T/C [12]: 14.4%
- viability, T/C [31]: 59.1%
- viability, T/C [32]: 46.5%
- viability, T/C [13]: 33.8%
- viability, T/C [14]: 19.7%
- viability, T/C [15]: 15.6%
- viability, T/C [16]: 13.3%
- viability, T/C [33]: 51.2%
- viability, T/C [34]: 41.9%
- viability, T/C [17]: 29.5%
- viability, T/C [18]: 20.7%
- viability, T/C [19]: 13.5%
- viability, T/C [20]: 11.7%
- viability, T/C [35]: 46.6%
- viability, T/C [36]: 40.4%
- viability, T/C [21]: 28.9%
- viability, T/C [22]: 18.4%
- viability, T/C [23]: 12.7%
- viability, T/C [24]: 10.5%
